Reference: the NIST ThermoML archive (doi:10.1016/j.jct.2016.12.034)

Settings: Crystal; for vapor or sublimation pressure: Transpiration method

CC(=O)Nc1ccc(/C=N/NC(N)=S)cc1 [Thioacetazone]
Settings	Normal melting temperature [°C]	vapor or sublimation pressure [kPa]
404.15 K	–	1.89e-05
406.15 K	–	2.23e-05
408.15 K	–	2.81e-05
410.15 K	–	3.67e-05
412.15 K	–	4.46e-05
415.15 K	–	6.04e-05
417.15 K	–	7.03e-05
420.15 K	–	0.0001125
423.15 K	–	0.0001414
425.15 K	–	0.0001651
427.15 K	–	0.0002376
429.15 K	–	0.0002851
DTA	229.00	–
